The values below come from ChEMBL document CHEMBL1137634, “A cysteine protease inhibitor cures Chagas' disease in an immunodeficient-mouse model of infection” (2007).

The test system of experiment [1] is Trypanosoma cruzi. The experiment can be described thus: Antitrypanosomal activity against Trypanosoma cruzi CA1/72 infected in recombinase Rag1 deficient mouse assessed as survival from lethal infection at 50 mg/kg, ip twice daily for 27 days. It counts as functional. As to conditions: route intraperitoneal.
Experiment [2] relates to Trypanosoma cruzi. Kind of experiment: Antitrypanosomal activity against Trypanosoma cruzi CA1/72 infected in recombinase Rag1 deficient mouse assessed as protection against spleen infection at 50 mg/kg, ip twice daily for 27 days measured at 16 to 24 weeks postinfection by histopathology. It counts as functional, organism-based. Also noted: dose 50 mg/kg.
The test system of experiment [3] is Trypanosoma cruzi. Kind of experiment: Antitrypanosomal activity against Trypanosoma cruzi CA1/72 infected in recombinase Rag1 deficient mouse assessed as protection against heart infection at 50 mg/kg, ip twice daily for 27 days measured at 16 to 24 weeks postinfection by histopathology. It counts as functional, organism-based. Also noted: dose 50 mg/kg.
Experiment [4] concerns Trypanosoma cruzi. The experiment can be described thus: Antitrypanosomal activity against Trypanosoma cruzi CA1/72 infected in recombinase Rag1 deficient mouse assessed as Trypanosoma-specific kinetoplast DNA in heart at 50 mg/kg, ip twice daily for 27 days by PCR. Details: dose 50 mg/kg. Type of experiment: functional, organism-based.
Experiment [5] concerns Trypanosoma cruzi. Kind of experiment: Antitrypanosomal activity against Trypanosoma cruzi CA1/72 infected in recombinase Rag1 deficient mouse assessed as protection against colon infection at 50 mg/kg, ip twice daily for 27 days measured at 16 to 24 weeks postinfection by histopathology. Type of experiment: functional, organism-based. Details: dose 50 mg/kg.
Experiment [6] deals with Trypanosoma cruzi. Kind of experiment: Antitrypanosomal activity against Trypanosoma cruzi CA1/72 infected in recombinase Rag1 deficient mouse blood assessed as Trypanosoma-specific kinetoplast DNA in blood at 50 mg/kg, ip twice daily for 27 days measured after 80 to 160 days post-infection by PCR. Also noted: dose 50 mg/kg. Type of experiment: functional, organism-based.

Experiment [7] relates to Trypanosoma cruzi. The experiment can be described thus: Antitrypanosomal activity against Trypanosoma cruzi CA1/72 infected in recombinase Rag1 deficient mouse assessed as Trypanosoma-specific kinetoplast DNA in spleen at 50 mg/kg, ip twice daily for 27 days by PCR. It counts as functional, organism-based. Details: dose 50 mg/kg.
The test system of experiment [8] is Trypanosoma cruzi. The experiment can be described thus: Antitrypanosomal activity against Trypanosoma cruzi CA1/72 infected in recombinase Rag1 deficient mouse assessed as protection against skeletal muscle infection at 50 mg/kg, ip twice daily for 27 days measured at 16 to 24 weeks postinfection by histopathology. Type of experiment: functional, organism-based. Details: dose 50 mg/kg. As to conditions: Muscle tissue.

For experiment [9], the system named is Trypanosoma cruzi. Kind of experiment: Antitrypanosomal activity against Trypanosoma cruzi CA1/72 infected in recombinase Rag1 deficient mouse assessed as Trypanosoma-specific kinetoplast DNA in blood at 50 mg/kg, ip twice daily for 27 days by PCR. It counts as functional, organism-based. Details: dose 50 mg/kg.
The subject of experiment [10] is Trypanosoma cruzi. Kind of experiment: Antitrypanosomal activity against Trypanosoma cruzi CA1/72 infected in recombinase Rag1 deficient mouse assessed as Trypanosoma-specific kinetoplast DNA in liver at 50 mg/kg, ip twice daily for 27 days by PCR. Type of experiment: functional, organism-based. Also noted: dose 50 mg/kg.
Experiment [11] relates to Trypanosoma cruzi. The experiment can be described thus: Antitrypanosomal activity against Trypanosoma cruzi CA1/72 infected in recombinase Rag1 deficient mouse assessed as protection against liver infection at 50 mg/kg, ip twice daily for 27 days measured at 16 to 24 weeks postinfection by histopathology. It counts as functional, organism-based. Details: dose 50 mg/kg.

In experiment [12] the test system is Trypanosoma cruzi. Kind of experiment: Antitrypanosomal activity against Trypanosoma cruzi CA1/72 infected in immunocompetent C3HeB/FeJ mouse assessed as protection against lethal acute Chaga's disease at 50 mg/kg, ip twice daily for 27 days. Type of experiment: functional. To be noted: route intraperitoneal.
Experiment [13] deals with Trypanosoma cruzi. The experiment can be described thus: Antitrypanosomal activity against Trypanosoma cruzi CA1/72 infected in recombinase Rag1 deficient mouse assessed as protection against lethal acute Chaga's disease at 50 mg/kg, ip twice daily for 27 days. As to conditions: route intraperitoneal. It counts as functional.

Each structure is given as a SMILES string. Activity calls are given as the source filed them. The calls are words filed in the database; no cut-off is given here.

As for `CN1CCN(C(=O)N[C@@H](Cc2ccccc2)C(=O)N[C@H](/C=C/S(=O)(=O)c2ccccc2)CCc2ccccc2)CC1` [K-777], in the experiment on Trypanosoma cruzi [1], the Survival stood at 150 days. Further, the outcome in the experiment with Trypanosoma cruzi [2], in the experiment on Trypanosoma cruzi [3], with Trypanosoma cruzi [4], with Trypanosoma cruzi [5], in the experiment on Trypanosoma cruzi [6] and with Trypanosoma cruzi [7] was Active. The result with Trypanosoma cruzi [8], with Trypanosoma cruzi [10] and with Trypanosoma cruzi [11] was Active. In addition, in the experiment with Trypanosoma cruzi [9], the result was inactive. Besides, the Activity with Trypanosoma cruzi [12] amounted to 100%; in the experiment on Trypanosoma cruzi [13], 60%.
